Reference: patent US20100035934A1, “PYRIDINYL-PYRAZOLE DERIVATIVES AND THEIR USE AS POTASSIUM CHANNEL MODULATORS” (NeuroSearch A/S, priority 2007, published 2010)

Biological target: T1, hSK3 channels (Homo sapiens, UniProt Q9UGI6)
T1 construct: expressed in transfected cells; host or cells: HEK293
Assay: Whole-cell patch-clamp recording of ionic current through SK channels (subtype 3) in HEK293 cells expressing hSK3
Type: cell-based
Details: baseline current at -75 mV, free Ca2+ 0.3-0.4 μM, room temperature
Procedure: The ionic current through small-conductance Ca^2+-activated K^+ channels (SK channels, subtype 3) is recorded using the whole-cell configuration of the patch-clamp technique.
HEK293 tissue culture cells expressing hSK3 channels were grown in DMEM (Dulbecco's Modified Eagle Medium) supplemented with 10% FCS (foetal calf serum) at 37° C. in 5% CO2. At 60-80% confluency, cells were harvested by trypsin treatment and seeded on cover slips.
Experiments are carried out on one of several patch-clamp set-ups. Cells plated on coverslips are placed in a 15 μl perfusion chamber (flowrate ˜1 ml/min) mounted on an IMT-2 microscope. The microscopes are placed on vibration-free tables in grounded Faraday cages. All experiments are performed at room temperature (20-22° C.). EPC-9 patch-clamp amplifiers (HEKA-electronics, Lambrect, Germany) are connected to Macintosh computers via ITC16 interfaces. Data are stored directly on the hard-disk and analysed by IGOR software (Wavemetrics, Lake Oswega, Oreg., USA).
The whole-cell configuration of the patch-clamp technique is applied. In short: The tip of a borosilicate pipette (resistance 2-4 MΩ) is gently placed on the cell membrane using remote control systems. Light suction results in the formation of a giga seal (pipette resistance increases to more than […]) and the cell membrane underneath the pipette is then ruptured by more powerful suction. Cell capacitance is electronically compensated and the resistance between the pipette and the cell interior (the series resistance, Rs) is measured and compensated for. Usually the cell capacitance ranges from 5 to 20 pF (depending on cell size) and the series resistance is in the range 3 to 6 MΩ. Rs—as well as capacitance compensation are updated during the experiments (before each stimulus). All experiments with drifting Rs-values are discharged. Leak-subtractions are not performed.
The extracellular (bath) solution contains (in mM): 154 mM KCl, 0.1 CaCl2, 3 MgCl2, 10 HEPES (pH=7.4 with HCl). The test compound was dissolved 1000 times in DMSO from a concentrated stock solution and then diluted in the extracellular solution.
The intracellular (pipette) solution contained: 154 mM KCl, 10 mM HEPES, 10 mM EGTA. Concentrations of CaCl2 and MgCl2 needed to obtain the desired free concentrations of Ca^2+ (0.3-0.4 μM, Mg^2+ always 1 mM) were calculated by EqCal software (Cambridge, UK) and added.
After establishment of the whole-cell configuration, voltage-ramps (normally −80 to +80 mV) are applied to the cell every 5 seconds from a holding potential of 0 mV. […] Active compounds are quantified by calculating the change in baseline current at −75 mV. […]

| The SC100 (Stimulating Concentration required for increasing the baseline current by 100%) [µM] | Compound |
| --- | --- |
| 0.03 | Cc1cc(C)n(-c2cccc(Nc3ccc(Cl)cc3)n2)n1 [Compound A1, (4-Chloro-phenyl)-[6-(3,5-dimethyl-pyrazol-1-yl)-pyridin-2-yl]-amine] |
| 0.3 | Clc1ccc(Nc2cccc(-n3cccn3)n2)c(Cl)c1 [Compound A8, (2,4-Dichloro-phenyl)-(6-pyrazol-1-yl-pyridin-2-yl)-amine] |
| 0.4 | Cc1cc(C)n(-c2cccc(Nc3ccc(F)c(F)c3)n2)n1 [Compound C4, (3,4-Difluoro-phenyl)-[6-(3,5-dimethyl-pyrazol-1-yl)-pyridin-2-yl]-amine] |
| 0.1 | CNc1cc(-n2nc(C)cc2C)nc(Nc2ccc(Cl)cc2)c1N [Compound D1, 3-Amino-2-(4-chlorophenylamino)-6-(3,5-dimethylpyrazol-1-yl)-4-methylamino-pyridine] |
